Activity data for one compound are collected here from ChEMBL document CHEMBL3232765, “Anti-mycobacterial activity of 1,3-diaryltriazenes” (Eur J Med Chem, 2014).

The subject of the assay is Mycobacterium tuberculosis. The assay is described as follows: Antimycobacterial activity against multidrug-resistant Mycobacterium tuberculosis LAM-1 at 0.73 uM after 4 to 6 days by BACTEC MGIT 960 assay. Format: functional, organism-based.

The structures appear in SMILES notation. Activity calls are given as the source filed them. No cut-off for these calls is given here.

For the compound `NNC(=O)c1ccncc1` [ISONIAZID], the result was inactive.
